The subject of the assay is HEK293T cells carrying the ATF4 luciferase reporter. The assay is described as follows: ATF4-Luc assay, in vitro model of Vanishing Cell White Matter Disease (VWMD). The settings on record: Homo sapiens, HEK-293T, 1 μg/mL tunicamycin, 7 hours, One Glo luminescence. Type of assay: cell-based. Summed up: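 Reporter cells were stably generated by retroviral transduction and puromycin selection, then seeded at 30,000 cells/well. Next day, cells received 1 μg/mL tunicamycin with 200 nM test compound for 7 h, and luciferase luminescence was read with a one-step reagent. Values reported as EC50.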
As to `COc1cccc(C(=O)NC23CC(NC(=O)COc4ccc(Cl)c(F)c4)(C2)C3)c1` [Compound 301, N-{3-[2-(4-chloro-3-fluorophenoxy)acetamido]bicyclo[1.1.1]pentan-1-yl}-3-methoxybenzamide], the EC50 is 250 to 1000 nM.

Turning to `O=C(COc1ccc(Cl)c(F)c1)NC12CC(NC(=O)c3cc4ccccn4c3)(C1)C2` [Compound 689, N-{3-[2-(4-chloro-3-fluorophenoxy)acetamido]bicyclo[1.1.1]pentan-1-yl}indolizine-2-carboxamide], the EC50 is 50 to 250 nM.

Consider `Cc1nc(C(=O)NC23CCC(NC(=O)COc4ccc(Cl)c(F)c4)(CC2)[C@H](O)C3)c(C)s1` [Compound 497, N-{(3R)-4-[2-(4-chloro-3-fluorophenoxy)acetamido]-3-hydroxybicyclo[2.2.2]octan-1-yl}-2,5-dimethyl-1,3-thiazole-4-carboxamide], for which the concentration giving a half-maximal response (EC50) fell in the range of 250 to 1000 nM.

Take `O=C(COc1ccc(Cl)c(F)c1)NC12CCC(NC(=O)c3ccc(C(F)F)cn3)(CC1)C[C@@H]2O` [Compound 752, N-{(3S)-4-[2-(4-chloro-3-fluorophenoxy)acetamido]-3-hydroxybicyclo[2.2.2]octan-1-yl}-5-(difluoromethyl)pyridine-2-carboxamide]: the EC50 is under 50 nM.

Turning to `CC(=O)NCc1ccc(C(=O)NC23CC(NC(=O)COc4ccc(Cl)c(F)c4)(C2)C3)o1` [Compound 778, 5-(acetamidomethyl)-N-{3-[2-(4-chloro-3-fluorophenoxy)acetamido]bicyclo[1.1.1]pentan-1-yl}furan-2-carboxamide], the EC50 was over 2000 nM.

For the compound `COc1cnc(C(=O)NC23CC(NC(=O)COc4ccc(Cl)c(F)c4)(C2)C3)cn1` [Compound 124, N-{3-[2-(4-chloro-3-fluorophenoxy)acetamido]bicyclo[1.1.1]pentan-1-yl}-5-methoxypyrazine-2-carboxamide], the EC50 was in the range of 1000 to 2000 nM.

For `Cc1onc(-c2ccccn2)c1C(=O)NC12CC(NC(=O)COc3ccc(Cl)c(F)c3)(C1)C2` [Compound 804, N-{3-[2-(4-chloro-3-fluorophenoxy)acetamido]bicyclo[1.1.1]pentan-1-yl}-5-methyl-3-(pyridin-2-yl)-1,2-oxazole-4-carboxamide], the 50% effective concentration (EC50) was over 2000 nM.

`COCCCc1cnc(C(=O)NC23CC(NC(=O)COc4ccc(Cl)c(F)c4)(C2)C3)cn1` [Compound 172, N-{3-[2-(4-chloro-3-fluorophenoxy)acetamido]bicyclo[1.1.1]pentan-1-yl}-5-(3-methoxypropyl)pyrazine-2-carboxamide]: the EC50 is 250 to 1000 nM.

With `O=C(COc1ccc2c(c1)OC(F)(F)O2)NC12CC(NC(=O)c3cnc(C(F)F)cn3)(C1)C2` [Compound 376, N-(3-{2-[(2,2-difluoro-2H-1,3-benzodioxol-5-yl)oxy]acetamido}bicyclo[1.1.1]pentan-1-yl)-5-(difluoromethyl)pyrazine-2-carboxamide], the EC50 was in the range of 50 to 250 nM.

As for `CCc1nc(C(=O)NC23CC(NC(=O)COc4ccc(Cl)c(F)c4)(C2)C3)cs1` [Compound 554, N-{3-[2-(4-chloro-3-fluorophenoxy)acetamido]bicyclo[1.1.1]pentan-1-yl}-2-ethyl-1,3-thiazole-4-carboxamide], the EC50 was under 50 nM.

For `O=C(COc1ccc(F)c(F)c1)NC12CC(Nc3cnc(-c4cccnc4)cn3)(C1)C2` [Compound 731, 2-(3,4-difluorophenoxy)-N-(3-{[5-(pyridin-3-yl)pyrazin-2-yl]amino}bicyclo[1.1.1]pentan-1-yl)acetamide], the EC50 is 1000 to 2000 nM.

Turning to `O=C(COc1ccc(Cl)c(F)c1)NC12CCC(NC(=O)c3cnc(C(F)F)cn3)(CC1)[C@@H](O)C2` (single isomer, unassigned) [Compound 236], the EC50 was under 50 nM.

Turning to `CCc1ncc(C(=O)NC23CC(NC(=O)COc4ccc(Cl)c(F)c4)(C2)C3)o1` [Compound 290, N-{3-[2-(4-chloro-3-fluorophenoxy)acetamido]bicyclo[1.1.1]pentan-1-yl}-2-ethyl-1,3-oxazole-5-carboxamide], the EC50 fell in the range of 50 to 250 nM.

For the compound `O=C(COc1ccc(Cl)c(F)c1)NC12CC(NC(=O)c3cc4ccccc4cn3)(C1)C2` [Compound 660, N-{3-[2-(4-chloro-3-fluorophenoxy)acetamido]bicyclo[1.1.1]pentan-1-yl}isoquinoline-3-carboxamide], the EC50 was 250 to 1000 nM.

Turning to `O=C(COc1ccc(Cl)c(F)c1)NC12CCC(NC(=O)c3cscn3)(CC1)C(O)C2` (centres unmarked) [Compound 212, N-{4-[2-(4-chloro-3-fluorophenoxy)acetamido]-2-hydroxybicyclo[2.2.2]octan-1-yl}-1,3-thiazole-4-carboxamide], the EC50 lay in the range of 250 to 1000 nM.

Turning to `CSCc1ccc(C(=O)NC23CC(NC(=O)COc4ccc(Cl)c(F)c4)(C2)C3)o1` [Compound 830, N-{3-[2-(4-chloro-3-fluorophenoxy)acetamido]bicyclo[1.1.1]pentan-1-yl}-5-[(methylsulfanyl)methyl]furan-2-carboxamide], the EC50 is 50 to 250 nM.

`O=C(COc1ccc(Cl)c(F)c1)NC12CC(NC(=O)c3cnc4ccccc4n3)(C1)C2` [Compound 482, N-{3-[2-(4-chloro-3-fluorophenoxy)acetamido]bicyclo[1.1.1]pentan-1-yl}quinoxaline-2-carboxamide]: the EC50 was under 50 nM.

For the compound `O=C(COc1ccc(Cl)c(F)c1)NC12CC(NC(=O)c3cn4cccnc4n3)(C1)C2` [Compound 772, N-{3-[2-(4-chloro-3-fluorophenoxy)acetamido]bicyclo[1.1.1]pentan-1-yl}imidazo[1,2-a]pyrimidine-2-carboxamide], the EC50 is over 2000 nM.

Regarding `O=C(COc1ccc(Cl)c(F)c1)NC12CC(NC(=O)c3cnc4sccc4c3)(C1)C2` [Compound 723, N-{3-[2-(4-chloro-3-fluorophenoxy)acetamido]bicyclo[1.1.1]pentan-1-yl}thieno[2,3-b]pyridine-5-carboxamide], the concentration giving a half-maximal response (EC50) lay in the range of 250 to 1000 nM.

With `Cc1cc(C(=O)NC23CC(NC(=O)COc4ccc(Cl)c(F)c4)(C2)C3)no1` [Compound 273, N-{3-[2-(4-chloro-3-fluorophenoxy)acetamido]bicyclo[1.1.1]pentan-1-yl}-5-methyl-1,2-oxazole-3-carboxamide], the EC50 was 250 to 1000 nM.

With `Cc1cncc(C(=O)NC23CC(NC(=O)COc4ccc(Cl)c(Cl)c4)(C2)C3)c1` [Compound 645, N-{3-[2-(3,4-dichlorophenoxy)acetamido]bicyclo[1.1.1]pentan-1-yl}-5-methylpyridine-3-carboxamide], the EC50 was in the range of 50 to 250 nM.

`O=C(COc1ccc(Cl)c(F)c1)NC12CC(NC(=O)c3cc(-c4ccc(Cl)cc4)on3)(C1)C2` [Compound 113, N-{3-[2-(4-chloro-3-fluorophenoxy)acetamido]bicyclo[1.1.1]pentan-1-yl}-5-(4-chlorophenyl)-1,2-oxazole-3-carboxamide]: the EC50 fell in the range of 50 to 250 nM.

Consider `CC(C)c1cc(C(=O)NC23CCC(NC(=O)COc4ccc(Cl)c(F)c4)(CC2)C(O)C3)on1` (centres unmarked) [Compound 577, N-{4-[2-(4-chloro-3-fluorophenoxy)acetamido]-3-hydroxybicyclo[2.2.2]octan-1-yl}-3-(propan-2-yl)-1,2-oxazole-5-carboxamide], for which the EC50 was 50 to 250 nM.

In the case of `Cc1cc2c(NC34CC(NC(=O)COc5ccc(OC(F)(F)F)c(F)c5)(C3)C4)nccn2n1` [Compound 496, 2-[3-fluoro-4-(trifluoromethoxy)phenoxy]-N-{3-[(2-methylpyrazolo[1,5-a]pyrazin-4-yl)amino]bicyclo[1.1.1]pentan-1-yl}acetamide], the EC50 was in the range of 50 to 250 nM.

For the compound `O=C(COc1ccc(Cl)c(F)c1)NC12CC(NC(=O)c3cnc4cccnn34)(C1)C2` [Compound 760, N-{3-[2-(4-chloro-3-fluorophenoxy)acetamido]bicyclo[1.1.1]pentan-1-yl}imidazo[1,2-b]pyridazine-3-carboxamide], the EC50 is over 2000 nM.

Consider `O=C(COc1ccc(Cl)cc1)NC12CC(NC(=O)c3cnc(C(F)F)cn3)(C1)C2` [Compound 202, N-{3-[2-(4-chlorophenoxy)acetamido]bicyclo[1.1.1]pentan-1-yl}-5-(difluoromethyl)pyrazine-2-carboxamide], for which the EC50 fell in the range of 50 to 250 nM.

For `O=C(COc1ccc(Cl)c(F)c1)NC12CCC(NC(=O)c3ccc(F)cn3)(CC1)CC2O` (centres unmarked) [Compound 230, N-{4-[2-(4-chloro-3-fluorophenoxy)acetamido]-3-hydroxybicyclo[2.2.2]octan-1-yl}-5-fluoropyridine-2-carboxamide], the EC50 lay in the range of 50 to 250 nM.

As to `CCOC(=O)c1ccnc(C(=O)NC23CC(NC(=O)COc4ccc(Cl)c(F)c4)(C2)C3)c1` [Compound 204, ethyl 2-({3-[2-(4-chloro-3-fluorophenoxy)acetamido]bicyclo[1.1.1]pentan-1-yl}carbamoyl)pyridine-4-carboxylate], the EC50 fell in the range of 50 to 250 nM.

On to `CCc1ccc(C(=O)NC23CC(NC(=O)COc4ccc(Cl)c(F)c4)(C2)C3)o1` [Compound 250, N-{3-[2-(4-chloro-3-fluorophenoxy)acetamido]bicyclo[1.1.1]pentan-1-yl}-5-ethylfuran-2-carboxamide], for which the EC50 was under 50 nM.

In the case of `Cc1ccc(S(=O)(=O)NC23CC(NC(=O)COc4ccc(Cl)c(F)c4)(C2)C3)cc1` [Compound 662, 2-(4-chloro-3-fluorophenoxy)-N-{3-[(4-methylbenzene-1-sulfonyl)amino]bicyclo[1.1.1]pentan-1-yl}acetamide], the EC50 was over 2000 nM.

In the case of `CC(=O)Nc1ccc(C(=O)NC23CC(NC(=O)COc4ccc(Cl)c(F)c4)(C2)C3)cn1` [Compound 805, 6-acetamido-N-{3-[2-(4-chloro-3-fluorophenoxy)acetamido]bicyclo[1.1.1]pentan-1-yl}pyridine-3-carboxamide], the EC50 is over 2000 nM.

`Cn1nc(-c2ccccc2)cc1C(=O)NC12CC(NC(=O)COc3ccc(Cl)c(F)c3)(C1)C2` [Compound 340, N-{3-[2-(4-chloro-3-fluorophenoxy)acetamido]bicyclo[1.1.1]pentan-1-yl}-1-methyl-3-phenyl-1H-pyrazole-5-carboxamide]: the EC50 was under 50 nM.
